Among the test systems are ACHN; CCRF-CEM; DU-145; HL-60; HOP-62; IGROV-1; K562; LOX IMVI; M14; MCF7; MDA-MB-435; MOLT-4; NCI-H226; OVCAR-3; SK-MEL-2; SK-OV-3; SNB-19; T47D; TK-10; RPMI-8226.
Common to all, as to assay: growth of human tumour cells (NCI), 48 h

Molecules are shown by their SMILES.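 Results reflect a 48-hour exposure of cells in 96-well plates to compound at five concentrations. At the GI50, growth is halved.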 Active and inactive are the calls of the source. Cut-off read from the data, not from the text of the source: active = GI50 up to about 1.1 µM and inactive = higher. Non-standard residues stand in square brackets, D forms with d. Residues, ends and D or L forms follow the SMILES beside them. *: point of attachment. X30 = COC1=CC(=O)N(C(=O)[C@@H](O*)C(C)C)[C@H]1Cc1ccccc1; NMeL = CN[C@@H](CC(C)C)C(=O)O; Cbz = O=C(OCc1ccccc1)*

`O=C1N(C2CCCCC2)C(=O)N1C1CCCCC1`: the GI50 with ACHN was 0.0562 µM (active); in the assay with CCRF-CEM it was 0.04 µM (active); in the assay on DU-145, 0.126 µM (active); in the assay on HL-60 it was < 0.01 µM (active); in the assay with HOP-62, 0.425 µM (active); in the assay on IGROV-1, 17.5 µM (inactive). In addition, the GI50 in the assay with K562 is 0.0875 µM (active); with LOX IMVI, 0.209 µM (active); in the assay with M14, 1.24 µM (inactive); in the assay on MCF7 it was 0.723 µM (active); in the assay on MDA-MB-435, 2.08 µM (inactive); in the assay with MOLT-4, 0.0132 µM (active). Besides, the GI50 is 0.416 µM (active) with NCI-H226; 1.87 µM (inactive) with OVCAR-3; 1.49 µM (inactive) in the assay on SK-MEL-2; 5.15 µM (inactive) in the assay on SK-OV-3; 1.46 µM (inactive) in the assay with SNB-19; 0.56 µM (active) in the assay on T47D. In addition, the GI50 with TK-10 is 2.34 µM (inactive).

In the case of `Cc1cc(S(=O)(=O)Nc2nc3cccnc3[nH]2)c(S)cc1Cl`, the GI50 with ACHN, in the assay on CCRF-CEM, in the assay on DU-145, in the assay with HL-60, with HOP-62 and with IGROV-1 was > 100 µM (inactive) each time. The GI50 with K562 was > 100 µM (inactive); in the assay on LOX IMVI it was 83 µM (inactive); in the assay on M14, > 100 µM (inactive); with MCF7 it was > 100 µM (inactive); in the assay on MDA-MB-435 it was > 100 µM (inactive); with MOLT-4 it was > 100 µM (inactive). Also, the GI50 in the assay with NCI-H226 is 52.2 µM (inactive); in the assay on OVCAR-3, > 100 µM (inactive); in the assay with RPMI-8226, > 100 µM (inactive); in the assay with SK-OV-3 it was > 100 µM (inactive); in the assay on SNB-19, 77.8 µM (inactive); with T47D, 46.8 µM (inactive). For the same compound, the GI50 with TK-10 was > 100 µM (inactive).

For `Nc1ccn(C2CC(O)C(COP(=O)(S)OC3CC(n4ccc(N)nc4=O)OC3CO)O2)c(=O)n1` (stereo not drawn), the GI50 in the assay with ACHN, in the assay with CCRF-CEM, with DU-145, with HL-60, in the assay on HOP-62 and with IGROV-1 was > 100 µM (inactive) throughout. Besides, the GI50 in the assay on LOX IMVI, in the assay on M14, with MCF7, with MDA-MB-435, with MOLT-4 and with OVCAR-3 was > 100 µM (inactive) in each case. The GI50 in the assay with RPMI-8226, in the assay on SK-MEL-2, with SNB-19, in the assay with T47D and in the assay with TK-10 was > 100 µM (inactive) in each case.

In the case of `CC(=O)NC1=C(C)C(=O)c2c(nc3n2CC[C@H]3OC(C)=O)C1=O`, the GI50 in the assay with ACHN was 2.78 µM (inactive); with CCRF-CEM, 0.33 µM (active); with DU-145, 15.9 µM (inactive); in the assay on HL-60 it was 0.834 µM (active); in the assay on HOP-62, 10.8 µM (inactive); with IGROV-1, 3.07 µM (inactive). In addition, the GI50 in the assay on K562 is 1.12 µM (active); in the assay on LOX IMVI it was 0.718 µM (active); in the assay with M14, 2.06 µM (inactive); in the assay with MCF7, 1.49 µM (inactive); with MDA-MB-435, 0.774 µM (active); in the assay with MOLT-4, 0.243 µM (active). The GI50 is 9.77 µM (inactive) with NCI-H226; 0.0982 µM (active) with OVCAR-3; 1.36 µM (inactive) in the assay with RPMI-8226; 1.41 µM (inactive) in the assay with SK-MEL-2; 5.5 µM (inactive) with SNB-19; 0.238 µM (active) in the assay with T47D. Besides, the GI50 in the assay on TK-10 is 8.13 µM (inactive).

For `CC(=O)OCC1OC(n2c(-c3ccccc3)c(/N=N/c3ccc(C)cc3)c(C)c(C#N)c2=S)C(OC(C)=O)C(OC(C)=O)C1OC(C)=O` (stereo not drawn), the GI50 is > 100 µM (inactive) in the assay on ACHN; 11 µM (inactive) with CCRF-CEM; 18.1 µM (inactive) in the assay on DU-145; 2.82 µM (inactive) in the assay with HL-60; 18.7 µM (inactive) in the assay with HOP-62; 5.69 µM (inactive) with K562. In addition, the GI50 in the assay with LOX IMVI is 6 µM (inactive); in the assay with M14 it was 3.16 µM (inactive); in the assay with MCF7 it was 6.47 µM (inactive); with MDA-MB-435, 9.06 µM (inactive); in the assay on MOLT-4 it was 3.67 µM (inactive); in the assay on OVCAR-3 it was 19.7 µM (inactive). In addition, the GI50 with RPMI-8226 was 8 µM (inactive); in the assay on SK-MEL-2, 20.7 µM (inactive); in the assay on SNB-19, 15.3 µM (inactive); in the assay with T47D, 59.8 µM (inactive); in the assay on TK-10, 23.6 µM (inactive).

`COC1=CC(=O)N(C(=O)[C@@H](OC(=O)[C@@H]2CCCN2C(=O)[C@@H]2CCCN2C(=O)[C@H](CC(C)C)N(C)C(=O)[C@@H](NC(=O)[C@@H](NC(=O)OCc2ccccc2)C(C)C)C(C)C)C(C)C)[C@H]1Cc1ccccc1` (Cbz-VV[NMeL]PP-X30): the GI50 with ACHN was > 100 µM (inactive); in the assay on CCRF-CEM, 35.3 µM (inactive); in the assay with DU-145 it was > 100 µM (inactive); with HL-60 it was > 100 µM (inactive); with HOP-62 it was 21.4 µM (inactive); with IGROV-1, 79.1 µM (inactive). Also, the GI50 was > 100 µM (inactive) with K562; > 100 µM (inactive) with LOX IMVI; 70.1 µM (inactive) in the assay on M14; 56 µM (inactive) in the assay on MCF7; > 100 µM (inactive) with MDA-MB-435; > 100 µM (inactive) in the assay with NCI-H226. The GI50 in the assay with OVCAR-3 was 47.1 µM (inactive); with RPMI-8226, 17.6 µM (inactive); in the assay with SK-MEL-2, 9.42 µM (inactive); with SK-OV-3, 31.3 µM (inactive); in the assay on SNB-19, 28.6 µM (inactive); in the assay on T47D, 68.2 µM (inactive). For the same compound, the GI50 with TK-10 was 64.7 µM (inactive).

Take `CCOc1cc(C2CC(c3ccc(NS(=O)(=O)c4cc([N+](=O)[O-])ccc4C)cc3)=NN2)ccc1O` (stereo not drawn): the GI50 was 23.7 µM (inactive) in the assay with ACHN; 30.8 µM (inactive) in the assay on CCRF-CEM; 36.6 µM (inactive) with DU-145; 15.5 µM (inactive) in the assay with HL-60; 58.9 µM (inactive) in the assay on IGROV-1; 24.5 µM (inactive) in the assay on K562. Moreover, the GI50 is 22.5 µM (inactive) in the assay with LOX IMVI; 19 µM (inactive) in the assay on M14; 21.5 µM (inactive) in the assay on MCF7; 28.1 µM (inactive) with MDA-MB-435; 17.5 µM (inactive) in the assay on MOLT-4; 43 µM (inactive) with NCI-H226. The GI50 in the assay with OVCAR-3 was 15.3 µM (inactive); with RPMI-8226, 24.6 µM (inactive); in the assay on SK-MEL-2, 21.7 µM (inactive); in the assay with SNB-19 it was 30.3 µM (inactive); in the assay on T47D, 27.9 µM (inactive).

Turning to `CCCCSC1=N/C(=C\c2ccc(N(C)C)cc2)C(NN)=N1`, the GI50 in the assay with ACHN, in the assay on CCRF-CEM, with DU-145, with HL-60, in the assay with HOP-62 and with IGROV-1 was > 100 µM (inactive) in each case. Moreover, the GI50 with K562, in the assay with LOX IMVI, with M14, in the assay on MCF7, with MDA-MB-435 and with MOLT-4 was > 100 µM (inactive) in each case. Besides, the GI50 in the assay with OVCAR-3, with RPMI-8226, in the assay on SK-MEL-2, in the assay on SK-OV-3, in the assay on SNB-19 and in the assay on T47D was > 100 µM (inactive) each time. For the same compound, the GI50 with TK-10 was > 100 µM (inactive).

Regarding `CC1=NN(c2nc(N)nc(/C(C#N)=C\C3COc4ccccc4C3=O)n2)C(C)(C)C1` (stereo not drawn), the GI50 in the assay on ACHN is 23.6 µM (inactive); with CCRF-CEM, 1.9 µM (inactive); in the assay with DU-145, 31.6 µM (inactive); in the assay with HL-60, 0.0404 µM (active); with HOP-62 it was 32.7 µM (inactive); in the assay on IGROV-1, 32.7 µM (inactive). Further, the GI50 is 32.1 µM (inactive) with K562; 27.2 µM (inactive) with LOX IMVI; 23.7 µM (inactive) in the assay on M14; 32.4 µM (inactive) in the assay on MCF7; 32.1 µM (inactive) in the assay with MDA-MB-435; 21.8 µM (inactive) with MOLT-4. Besides, the GI50 was 22.8 µM (inactive) in the assay with NCI-H226; 22.6 µM (inactive) in the assay on OVCAR-3; 17.7 µM (inactive) with RPMI-8226; 14.8 µM (inactive) in the assay on SK-MEL-2; 25.8 µM (inactive) in the assay on SK-OV-3; 18.2 µM (inactive) in the assay on T47D. In addition, in the assay with TK-10, the GI50 was 27.6 µM (inactive).

Take `Cc1sc2ccccc2[n+]1CCC(=O)O`: the GI50 was > 100 µM (inactive) with ACHN; > 100 µM (inactive) in the assay on DU-145; 11.5 µM (inactive) in the assay on HL-60; > 100 µM (inactive) with HOP-62; > 100 µM (inactive) with IGROV-1; 6.67 µM (inactive) with K562. In addition, the GI50 with LOX IMVI, in the assay on M14, with MCF7, in the assay with MDA-MB-435, in the assay on NCI-H226 and in the assay with OVCAR-3 was > 100 µM (inactive) throughout. The GI50 in the assay with RPMI-8226, in the assay with SK-MEL-2, in the assay on SK-OV-3, in the assay on SNB-19, with T47D and with TK-10 was > 100 µM (inactive) throughout.

Source of the values: ChEMBL document CHEMBL1201862, “PubChem BioAssay data set” (2004).
